From patent publication US7560464B2, “Polycyclic pyrimidines as potassium ion channel modulators” (Icagen, Inc., priority 2004, dated 2009)
pIC50: −log10 of the molar value.

molecular target: T1, recombinant human SK4 (hIK1 or hKCa4) channels (Homo sapiens, UniProt O15554+P0DP23); assay: not given; settings: applied to the inside of SK4 channel-expressing membrane patches; cited from earlier work
T1 construct: host or cells: HEK 293

Compound | activation of SK4 channels
iron | did not activate
calcium | activated SK4 channels in a concentration-dependent manner
zinc | did not activate
lead | activated SK4 channels in a concentration-dependent manner
cobalt | did not activate
magnesium | did not activate
cadmium | activated SK4 channels in a concentration-dependent manner
strontium | activated SK4 channels in a concentration-dependent manner
Barium | activated SK4 channels in a concentration-dependent manner

molecular target: SK2 subtype channels (Rattus norvegicus, UniProt P70604); assay: not given; settings: patch clamp; cited from earlier work

Compound | block of SK2 channel currents
NC(=O)N1c2ccccc2C=Cc2ccccc21 [carbamazepine] | block SK2 channel currents with micromolar affinity
CN(C)CCC=C1c2ccccc2CCc2ccccc21 [amitriptyline] | block SK2 channel currents with micromolar affinity
Nc1c2c(nc3ccccc13)CCCC2 [tacrine] | block SK2 channel currents with micromolar affinity

molecular target: hSK2 (Homo sapiens, UniProt Q9H2S1); assay: Assay for compound activity towards hSK channels (86Rb+ efflux); type: cell-based; settings: 86Rb+ efflux stimulated with calcium ionophore; drug 0.01 to 30 μM in EBSS; read-out: hSK2 Inhibitory Activity
Procedure: 20.1 Assay for Compound Activity Towards hSK Channels
Cells expressing small conductance, calcium activated potassium channels, such as SK-like channels were loaded with ^86Rb^+ by culture in media containing ^86RbCl. Following loading, the culture media was removed and the cells were washed in EBSS to remove residual traces of ^86Rb^+. Cells were preincubated with the drug (0.01 to 30 μM in EBSS) and then ^86Rb^+ efflux was stimulated by exposing cells to EBSS solution supplemented with a calcium ionophore, such as ionomycin, in the continued presence of the drug. After a suitable efflux period, the EBSS/ionophore solution was removed from the cells and the ^86Rb^+ content was determined by Cherenkov counting (Wallac Trilux). Cells were then lysed with a SDS solution and the ^86Rb^+ content of the lysate was determined. Percent ^86Rb^+ efflux was calculated according to the following equation: (^86Rb^+ content in EBSS/(^86Rb^+ content in EBSS+^86Rb^+ content of the lysate))×100 20.2 Results

Compound | pIC50
c1ccc(-c2ccc(Nc3nccc(-c4ccccn4)n3)nc2)cc1 [(5-Phenyl-pyridin-2-yl)-(4-pyridin-2-yl-pyrimidin-2-yl)-amine] | 6.00 to 7.00
Clc1ccc(Nc2nccc(-c3ccccn3)n2)nc1 [(5-Chloro-pyridin-2-yl)-(4-pyridin-2-yl-pyrimidin-2-yl)-amine] | 6.00 to 7.00
COc1cnc(-c2ccccn2)nc1Nc1ccc(N2CCCC2=O)cn1 [1-[6-(5-Methoxy-2-pyridin-2-yl-pyrimidin-4-ylamino)-pyridin-3-yl]-pyrrolidin-2-one] | > 7.00
COc1cnc(-c2ccccn2)nc1Nc1ccc(-c2cccs2)cn1 [(5-Methoxy-2-pyridin-2-yl-pyrimidin-4-yl)-(5-thiophen-2-yl-pyridin-2-yl)-amine] | > 7.00
COc1cnc(-c2ccccn2)nc1Nc1ccc(N2CCC(C)CC2)cn1 [(5-Methoxy-2-pyridin-2-yl-pyrimidin-4-yl)-(4-methyl-3,4,5,6-tetrahydro-2H-[1,3′]bipyridinyl-6′-yl)-amine] | > 7.00
c1ccc(Nc2nc(-c3ccccn3)nc3ccccc23)nc1 [Pyridin-2-yl-(2-pyridin-2-yl-quinazolin-4-yl)-amine] | 6.00 to 7.00
FC(F)(F)c1ccc(Nc2nccc(-c3ccccn3)n2)nc1 [(4-Pyridin-2-yl-pyrimidin-2-yl)-(5-trifluoromethyl-pyridin-2-yl)-amine] | 4.52 to 5.30
COc1cnc(-c2ccccn2)nc1Nc1ccc(C(F)(F)F)cn1 [(5-Methoxy-2-pyridin-2-yl-pyrimidin-4-yl)-(5-trifluoromethyl-pyridin-2-yl)-amine] | 4.52 to 5.30
COc1cnc(-c2ccccn2)nc1Nc1ccc(-c2cccc(F)c2)cn1 [[5-(3-Fluoro-phenyl)-pyridin-2-yl]-(5-methoxy-2-pyridin-2-yl-pyrimidin-4-yl)-amine] | 6.00 to 7.00
Cc1cccc(-c2ccnc(Nc3ccccn3)n2)n1 [[4-(6-methyl-pyridin-2-yl)-pyrimidin-2-yl]-pyridin-2-yl-amine] | 5.30 to 6.00
COc1cnc(-c2ccccn2)nc1Nc1ccc(-c2ccsc2)cn1 [(5-Methoxy-2-pyridin-2-yl-pyrimidin-4-yl)-(5-thiophen-3-yl-pyridin-2-yl)-amine] | > 7.00
Cc1nc(-c2ccccn2)nc(Nc2ccc(C(F)(F)F)cn2)c1Cl [(5-Chloro-6-methyl-2-pyridin-2-yl-pyrimidin-4-yl)-(5-trifluoromethyl-pyridin-2-yl)-amine] | 4.52 to 5.30
c1ccc(Nc2cc(-c3ccccn3)nc(-c3ccccn3)n2)nc1 [(2,6-Di-pyridin-2-yl-pyrimidin-4-yl)-pyridin-2-yl-amine] | 4.52 to 5.30
COc1cnc(-c2ccccn2)nc1Nc1ccc(Br)cn1 [(5-Bromo-pyridin-2-yl)-(5-methoxy-2-pyridin-2-yl-pyrimidin-4-yl)-amine] | 4.52 to 5.30
Clc1cc(-c2ccccn2)nc(-c2ccccn2)n1 [4-Chloro-2,6-di-pyridin-2-yl-pyrimidine] | 5.30 to 6.00
COc1cnc(-c2ccccn2)nc1Nc1ccc(F)cn1 [(5-Fluoro-pyridin-2-yl)-(5-methoxy-2-pyridin-2-yl-pyrimidin-4-yl)-amine] | 6.00 to 7.00
COc1cnc(-c2ccccn2)nc1Nc1ccc([N+](=O)[O-])cn1 [(5-Methoxy-2-pyridin-2-yl-pyrimidin-4-yl)-(5-nitro-pyridin-2-yl)-amine] | 4.52 to 5.30
CN(c1ccccn1)c1nccc(-c2ccccn2)n1 [Methyl-pyridin-2-yl-(4-pyridin-2-yl-pyrimidin-2-yl)-amine] | 4.52 to 5.30

Compound | pIC50
COc1cnc(-c2ccccn2)nc1Nc1ccc(Cl)cn1 [(5-Chloro-pyridin-2-yl)-(5-methoxy-2-pyridin-2-yl-pyrimidin-4-yl)-amine] | 6.00 to 7.00
c1ccc(Nc2nc(-c3ccccn3)c3ccccc3n2)nc1 [Pyridin-2-yl-(4-pyridin-2-yl-quinazolin-2-yl)-amine] | 4.52 to 5.30
COc1cnc(-c2ccccn2)nc1Nc1ccc(N2CCN(C)CC2)cn1 [(5-Methoxy-2-pyridin-2-yl-pyrimidin-4-yl)-[5-(4-methyl-piperazin-1-yl)-pyridin-2-yl]-amine] | 6.00 to 7.00
Cc1cc(Nc2ccccn2)nc(-c2ccccn2)n1 [(6-methyl-2-pyridin-2-yl-pyrimidin-4-yl)-pyridin-2-yl-amine] | 4.52 to 5.30
COc1cnc(-c2ccccn2)nc1Nc1ccccn1 [(5-Methoxy-2-pyridin-2-yl-pyrimidin-4-yl)-pyridin-2-yl-amine] | 6.00 to 7.00
COc1cnc(-c2ccccn2)nc1NNc1ccccn1 [N-(5-Methoxy-2-pyridin-2-yl-pyrimidin-4-yl)-N′-pyridin-2-yl-hydrazine] | 4.52 to 5.30
COc1cnc(-c2ccccn2)nc1Nc1ccc(N2CCCC2)cn1 [(5-Methoxy-2-pyridin-2-yl-pyrimidin-4-yl)-(5-pyrrolidin-1-yl-pyridin-2-yl)-amine] | > 7.00
FC(F)(F)c1ccc(Nc2cc(-c3ccccn3)nc(-c3ccccn3)n2)nc1 [(2,6-Di-pyridin-2-yl-pyrimidin-4-yl)-(5-trifluoromethyl-pyridin-2-yl)-amine] | 4.52 to 5.30
COc1cnc(-c2ccccn2)nc1Nc1ccc(-c2ccccc2)cn1 [(5-Methoxy-2-pyridin-2-yl-pyrimidin-4-yl)-(5-phenyl-pyridin-2-yl)-amine] | 6.00 to 7.00
COc1ccc(Nc2nc(-c3ccccn3)ncc2OC)nc1 [(5-Methoxy-pyridin-2-yl)-(5-methoxy-2-pyridin-2-yl-pyrimidin-4-yl)-amine] | > 7.00
c1ccc(Nc2nccc(-c3ccccn3)n2)nc1 [Pyridin-2-yl-(4-pyridin-2-yl-pyrimidin-2-yl)-amine] | > 7.00
COc1cnc(-c2ccccn2)nc1Nc1ccc(-c2ccc(C)o2)cn1 [(5-Methoxy-2-pyridin-2-yl-pyrimidin-4-yl)-[5-(5-methyl-furan-2-yl)-pyridin-2-yl]-amine] | 6.00 to 7.00
Cc1cccc(-c2nccc(Nc3ccccn3)n2)n1 [[2-(6-methyl-pyridin-2-yl)-pyrimidin-4-yl]-pyridin-2-yl-amine] | 5.30 to 6.00
COc1cnc(-c2ccccn2)nc1Nc1ccc(N)cn1 [N^2-(5-Methoxy-2-pyridin-2-yl-pyrimidin-4-yl)-pyridine-2,5-diamine] | > 7.00
Cc1ccnc(Nc2nccc(-c3ccccn3)n2)c1 [(4-Methyl-pyridin-2-yl)-(4-pyridin-2-yl-pyrimidin-2-yl)-amine] | > 7.00
COc1cnc(-c2ccccn2)nc1Nc1ccc(N(C)C)cn1 [N^2-(5-Methoxy-2-pyridin-2-yl-pyrimidin-4-yl)-N5,N5-dimethyl-pyridine-2,5-diamine] | 6.00 to 7.00
Clc1ccc(Nc2ccnc(-c3ccccn3)n2)nc1 [(5-Chloro-pyridin-2-yl)-(2-pyridin-2-yl-pyrimidin-4-yl)-amine] | 5.30 to 6.00
COc1cnc(-c2ccccn2)nc1Nc1cc(C)ccn1 [(5-Methoxy-2-pyridin-2-yl-pyrimidin-4-yl)-(4-methyl-pyridin-2-yl)-amine] | > 7.00
